The source of these data is patent publication US11535606B2, “Substituted quinoline-8-carbonitrile derivatives with androgen receptor degradation activity and uses thereof” (ACCUTAR BIOTECHNOLOGY INC., priority 2019, dated 2022).

Numbering of substitutions follows the chain as printed. Bounds are passed on as bounds.

For assay [1], the target named is T1, androgen receptor (AR) (Homo sapiens, UniProt P10275, T878A).
T1 construct: endogenous in cells; host or cells: LNCAP
T1 sequence (P10275 1-920 T878A): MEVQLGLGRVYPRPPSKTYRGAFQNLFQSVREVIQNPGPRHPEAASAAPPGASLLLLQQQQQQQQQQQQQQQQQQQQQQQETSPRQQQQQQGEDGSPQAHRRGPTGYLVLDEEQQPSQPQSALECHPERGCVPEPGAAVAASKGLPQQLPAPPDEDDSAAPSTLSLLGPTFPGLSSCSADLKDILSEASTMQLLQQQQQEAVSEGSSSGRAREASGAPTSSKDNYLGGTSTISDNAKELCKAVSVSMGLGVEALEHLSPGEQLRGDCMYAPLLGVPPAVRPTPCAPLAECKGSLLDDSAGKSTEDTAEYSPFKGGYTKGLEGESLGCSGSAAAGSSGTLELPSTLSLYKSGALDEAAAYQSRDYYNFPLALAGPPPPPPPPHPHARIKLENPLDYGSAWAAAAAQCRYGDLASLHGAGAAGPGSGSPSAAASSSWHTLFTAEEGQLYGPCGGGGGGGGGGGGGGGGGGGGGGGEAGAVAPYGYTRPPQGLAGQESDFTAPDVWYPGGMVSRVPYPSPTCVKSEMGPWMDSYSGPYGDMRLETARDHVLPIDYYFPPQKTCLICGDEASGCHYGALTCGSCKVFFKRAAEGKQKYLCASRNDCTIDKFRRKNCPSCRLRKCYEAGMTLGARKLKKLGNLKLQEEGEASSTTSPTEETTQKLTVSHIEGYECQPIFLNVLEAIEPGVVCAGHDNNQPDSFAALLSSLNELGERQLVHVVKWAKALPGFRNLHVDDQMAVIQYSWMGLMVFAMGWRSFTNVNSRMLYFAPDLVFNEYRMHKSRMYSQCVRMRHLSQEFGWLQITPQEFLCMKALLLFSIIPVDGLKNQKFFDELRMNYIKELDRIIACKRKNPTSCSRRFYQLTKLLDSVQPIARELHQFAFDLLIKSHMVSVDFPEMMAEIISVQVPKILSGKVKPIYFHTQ
As to the kind of experiment: AR degradation activity in LNCAP cells (Western blot). The class given is cell-based. The following applies: 24 hours after administration, DC50 = concentration needed for 50% target protein degradation. The protocol: (§1) LNCAP, VCAP and 22Rv1 cells were plated in 24-well plates at 1.5×10E5 cells/well in the RPMI growth medium containing 10% FBS and 1% Penicillin Streptomycin, and then incubated at 37° C. overnight. The following day, the test compound was administered to the cells by using 1000× compound stock solution prepared in DMSO at various concentrations. After administration of the compound, the cells were then incubated at 37° C. for 24 hours. Upon completion, the cells were washed with PBS and protein was collected in Laemmli sample buffer (1×; VWR International). Proteins in cell lysate were separated by SDS-PAGE and transferred to Odyssey nitrocellulose membranes (Licor) with Iblot® dry blotting transfer system (ThermoFisher). Nonspecific binding was blocked by incubating membranes with Intercept Blocking Buffer (Licor) for 1 hour at room temperature with gentle shaking. The membranes were then incubated overnight at 4° C. with Primary antibodies rabbit anti-AR (1:1,000, Cell Signaling, 5153) and mouse anti-GAPDH (1:5,000, Santa Cruz Biotechnology, sc-47724) diluted in Intercept Blocking Buffer containing 0.1% Tween 20. After washing 3 times with TBS-T, the membranes were incubated with IRDye® 800CW goat anti-mouse IgG (1:20,000, Licor) or IRDye® 800CW goat anti-rabbit IgG (1:20,000, Licor) for 1 hour. After TBS-T washes, membranes were rinsed in TBS and scanned on Odyssey® CLx Imaging System (Licor). The bands were quantified using Image Studio™ Software (Licor).
(§2) Table 4 summarizes the androgen receptor (AR) degradative activity of exemplary compounds in LNCAP, VCAP and 22Rv1 cell lines 24 hours after administration. DC50: compound concentration needed for 50% target protein degradation.
A general note: In western blotting, separated proteins are transferred to a membrane and probed.

For assay [2], the target named is T2, androgen receptor (AR) (Homo sapiens, UniProt P10275).
T2 construct: endogenous in cells; host or cells: VCAP
T2 sequence (P10275 1-920): T1 sequence (P10275 1-920 T878A) with A878T
The experiment in a line: AR degradation activity in VCAP cells (Western blot). The class given is cell-based. The following applies: 24 hours after administration, DC50 = concentration needed for 50% target protein degradation. How it is done:
as §1, §2

Broadly, the DC50 is the concentration giving 50% degradation. For the compound `N#Cc1ccc(O[C@H]2CC[C@H](NC(=O)c3ccc(N4CCC(CN5CCN(c6ccc7c(c6)C(=O)N(C6CCC(=O)NC6=O)C7=O)CC5)CC4)nc3)CC2)c2cccnc12` (relative stereo) [Compound 3-13, trans-N-(4-((8-cyanoquinolin-5-yl)oxy)cyclohexyl)-6-(4-((4-(2-(2,6-dioxopiperidin-3-yl)-1,3-dioxoisoindolin-5-yl)piperazin-1-yl)methyl)piperidin-1-yl)nicotinamide], the DC50 at androgen receptor (AR) [1] and at androgen receptor (AR) [2] was below 0.01 µM each time.

As to `N#Cc1ccc(O[C@H]2CC[C@H](NC(=O)c3ccc(N4CCC(CCN5CCN(c6ccc7c(c6)C(=O)N(C6CCC(=O)NC6=O)C7=O)CC5)CC4)cc3)CC2)c2cccnc12` (relative stereo) [Compound 3-22, trans-N-(4-((8-cyanoquinolin-5-yl)oxy)cyclohexyl)-4-(4-(2-(4-(2-(2,6-dioxopiperidin-3-yl)-1,3-dioxoisoindolin-5-yl)piperazin-1-yl)ethyl)piperidin-1-yl)benzamide], the DC50 on androgen receptor (AR) [1] and on androgen receptor (AR) [2] was below 0.01 µM each time.

As for `CN(CC1CCN(c2ccc(C(=O)NC3CCC(Oc4ccc(C#N)c5ncccc45)CC3)cn2)CC1)C1CC(Oc2ccc3c(c2)C(=O)N(C2CCC(=O)NC2=O)C3=O)C1` (centres unmarked) [Compound 3-9], the DC50 on androgen receptor (AR) [1] was below 0.01 µM.

The compound `CC(C)N(CC1CCN(c2ccc(C(=O)NC3CCC(Oc4ccc(C#N)c5ncccc45)CC3)cn2)CC1)C1CC(Oc2ccc3c(c2)C(=O)N(C2CCC(=O)NC2=O)C3=O)C1` (centres unmarked) [Compound 3-11] registered a DC50 on androgen receptor (AR) [1] below 0.01 µM.

As to `N#Cc1ccc(O[C@H]2CC[C@H](NC(=O)c3cnc(N4CCC(CN5CCN(c6ccc7c(c6)C(=O)N(C6CCC(=O)NC6=O)C7=O)CC5)CC4)nc3)CC2)c2cccnc12` (stereo partly drawn) [Compound 3-15, trans-N-(4-((8-cyanoquinolin-5-yl)oxy)cyclohexyl)-2-(4-((4-(2-(2,6-dioxopiperidin-3-yl)-1,3-dioxoisoindolin-5-yl)piperazin-1-yl)methyl)piperidin-1-yl)pyrimidine-5-carboxamide], the DC50 on androgen receptor (AR) [1] and at androgen receptor (AR) [2] was below 0.01 µM throughout.

On to `N#Cc1ccc(O[C@H]2CC[C@H](NC(=O)c3ccc(N4CCC(CN5CCN(c6ccc7c(c6)C(=O)N(C6CCC(=O)NC6=O)C7=O)CC5)CC4)nn3)CC2)c2cccnc12` (stereo partly drawn) [Compound 3-16, trans-N-(4-((8-cyanoquinolin-5-yl)oxy)cyclohexyl)-6-(4-((4-(2-(2,6-dioxopiperidin-3-yl)-1,3-dioxoisoindolin-5-yl)piperazin-1-yl)methyl)piperidin-1-yl)pyridazine-3-carboxamide], for which the DC50 at androgen receptor (AR) [1] and at androgen receptor (AR) [2] was below 0.01 µM each time.

In turn, `N#Cc1ccc(OC2CCC(NC(=O)c3cnc(N4CCC(CN5CCN(c6ccc7c(c6)C(=O)N(C6CCC(=O)NC6=O)C7=O)CC5)CC4)cn3)CC2)c2cccnc12` (centres unmarked) [Compound 3-17] showed a DC50 at androgen receptor (AR) [1] below 0.01 µM.

In the case of `N#Cc1ccc(O[C@H]2CC[C@H](NC(=O)c3ccc(N4CCC(CN5CCN(c6ccc7c(c6)C(=O)N(C6CCC(=O)NC6=O)C7=O)CC5)CC4)cc3)CC2)c2cccnc12` (some centres unmarked) [Compound 3-18, N-(4-((8-cyanoquinolin-5-yl)oxy)cyclohexyl)-4-(4-((4-(2-(2,6-dioxopiperidin-3-yl)-1,3-dioxoisoindolin-5-yl)piperazin-1-yl)methyl)piperidin-1-yl)benzamide], the DC50 on androgen receptor (AR) [1] and on androgen receptor (AR) [2] was below 0.01 µM throughout.

On to `N#Cc1ccc(OC2CCC(NC(=O)c3ccc(N4CCC(CN5CCN(c6ccc7c(c6)C(=O)N(C6CCC(=O)NC6=O)C7=O)CC5)CC4)c(F)c3)CC2)c2cccnc12` (centres unmarked) [Compound 3-19, N-(4-((8-cyanoquinolin-5-yl)oxy)cyclohexyl)-4-(4-((4-(2-(2,6-dioxopiperidin-3-yl)-1,3-dioxoisoindolin-5-yl)piperazin-1-yl)methyl)piperidin-1-yl)-3-fluorobenzamide], for which the DC50 at androgen receptor (AR) [1] and on androgen receptor (AR) [2] was below 0.01 µM throughout.

For the compound `N#Cc1ccc(OC2CCC(NC(=O)c3cnc(N4CCC(CN5CCN(c6ccc7c(c6)CN([C@H]6CCC(=O)NC6=O)C7=O)CC5)CC4)nc3)CC2)c2cccnc12` (some centres unmarked) [Compound 3-30], the DC50 on androgen receptor (AR) [1] and at androgen receptor (AR) [2] was below 0.01 µM throughout.

As for `N#Cc1ccc(OC2CCC(NC(=O)c3ccc(N4CCC(CN5CCN(c6cc7c(cc6F)C(=O)N(C6CCC(=O)NC6=O)C7=O)CC5)CC4)nc3)CC2)c2cccnc12` (centres unmarked) [Compound 3-35], the DC50 on androgen receptor (AR) [1] was below 0.01 µM.

Compound `CC(C)N(CC1CCN(c2ccc(C(=O)NC3CCC(Oc4ccc(C#N)c5ncccc45)CC3)nn2)CC1)C1CC(Oc2ccc3c(c2)C(=O)N(C2CCC(=O)NC2=O)C3=O)C1` (centres unmarked) [Compound 3-43] returned a half-maximal degradation concentration (DC50) at androgen receptor (AR) [1] below 0.01 µM.

Compound `N#Cc1ccc(OC2CCC(NC(=O)c3ccc(N4CCC(CN5CCN(c6cc7c(cc6F)C(=O)N(C6CCC(=O)NC6=O)C7=O)CC5)CC4)cc3)CC2)c2cccnc12` (centres unmarked) [Compound 3-49] showed a DC50 at androgen receptor (AR) [1] above 0.1 µM.

In the case of `N#Cc1ccc(OC2CCC(NC(=O)c3ccc(N4CCC(CN5CCN(c6cc7c(cc6F)C(=O)N(C6CCC(=O)NC6=O)C7=O)CC5)CC4)c(F)c3)CC2)c2cccnc12` (centres unmarked) [Compound 3-50], the DC50 at androgen receptor (AR) [1] is below 0.01 µM.

`N#Cc1ccc(OC2CCC(NC(=O)c3cnc(N4CCC(CN5CCN(c6cc7c(cc6F)C(=O)N(C6CCC(=O)NC6=O)C7=O)CC5)CC4)nc3)CC2)c2cccnc12` (centres unmarked) [Compound 3-51]: the DC50 on androgen receptor (AR) [1] was below 0.01 µM.

At androgen receptor (AR) [1], `N#Cc1ccc(OC2CCC(NC(=O)c3cnc(N4CCC(CN5CCN(c6cc7c(cc6F)C(=O)N(C6CCC(=O)NC6=O)C7=O)CC5)CC4)cn3)CC2)c2cccnc12` (centres unmarked) [Compound 3-52] had a DC50 below 0.01 µM.

For the compound `N#Cc1ccc(O[C@H]2CC[C@H](NC(=O)c3cnc(N4CCC(CN5CCN(c6cc7c(cc6F)C(=O)N(C6CCC(=O)NC6=O)C7=O)CC5)CC4)c(F)c3)CC2)c2cccnc12` (some centres unmarked) [Compound 3-53], at androgen receptor (AR) [1], the DC50 is below 0.01 µM.

Turning to `N#Cc1ccc(O[C@H]2CC[C@H](NC(=O)c3cnc(N4CC[C@@H](CN5CCN(c6ccc7c(c6)C(=O)N(C6CCC(=O)NC6=O)C7=O)CC5)C4)nc3)CC2)c2cccnc12` (some centres unmarked) [Compound 3-54], at androgen receptor (AR) [1], the DC50 was below 0.01 µM.

On to `N#Cc1ccc(O[C@H]2CC[C@H](NC(=O)c3cnc(N4CC[C@H](CN5CCN(c6ccc7c(c6)C(=O)N(C6CCC(=O)NC6=O)C7=O)CC5)C4)nc3)CC2)c2cccnc12` (some centres unmarked) [Compound 3-55], for which, on androgen receptor (AR) [1], the DC50 was below 0.01 µM.
